Measurements published in patent publication US20020133846A1, “Method for protecting plants” (priority 1996, published 2002).
Where two headings read alike, the source gives them in different places.

Columns and labels:
[1] = tested on: Peronospora parasitica isolate Emwa; experiment: Action against Peronospora parasitica in Arabidopsis overexpressing NIM1 (lines 6E, 7C) and wild-type Ws; assay type: in vivo
Excerpt: The plant lines used in this example (6E and 7C) were generated from transformation of wild-type Arabidopsis thaliana plants (ecotype Ws) with the BamHI-HindIII NIM1 genomic fragment (SEQ ID NO:1—bases 1249-5655), as described above in Example 21. The fungicides metalaxyl, fosetyl, and copper hydroxide, formulated as 25%, 80%, and 70% active ingredient (ai), respectively, with a wettable powder carrier, were applied as fine mist to leaves of three week-old transgenic Ws plants constitutively expressing the NIM1 gene. The wettable powder alone was applied as a control. Three days later, plants were inoculated with a Peronospora parasitica isolate Emwa conidial suspension (1-2×10^5 spores/ml), as described in Delaney et al. (1995). Following inoculation, plants were covered to maintain high humidity and were placed in a Percival growth chamber at 17° C. with a 14-hr day/10-hr night cycle (Uknes et al., 1993). Tissue was harvested 8 days after inoculation.
Fungal infection progression was followed for 12 days by viewing under a dissecting microscope to score development of conidiophores (Delaney, et al. (1994); Dietrich, et al. (1994)). Lactophenoltrypan blue staining of individual leaves was carried out to observe fungal growth within leaf tissue. Fungal growth was quantified using a rRNA fungal probe obtained by PCR according to White et al. (1990; PCR Protocols: A guide to Methods and Application, 315-322) using primers NS1 and NS2 and P. parasitica EmWa DNA as templates. RNA was purified from frozen tissue by phenol/chloroform extraction following lithium chloride precipitation (Lagrimini et al, 1987: PNAS, 84: 7542-7546). Samples (7.5 μg) were separated by electrophoresis through formaldehyde agarose gels and blotted to nylon membranes (Hybond-N+, Amersham) as described by Ausbel et al. (1987). Hybridizations and washing were according to Church and Gilbert (1984, PNAS, 81: 1991-1995). Relative amounts of the transcript were determined using a Phosphor Imager (Molecular Dynamics, Sunnyvale, Calif.) following manufacturers instructions. Sample loading was normalized by probing stripped filter blots with the constitutively expressed b-tubulin Arabidopsis cDNA.

[2] = tested on: Peronospora parasitica NoCo2; experiment: whole plant or invertebrate; assay type: in vivo
[3] = Cu(OH)2 0.02 g/l, NIM1 overexpression line 6E
[4] = Cu(OH)2 0.02 g/l, NIM1 overexpression line 7C
[5] = Cu(OH)2 0.2 g/l, NIM1 overexpression line 6E
[6] = Cu(OH)2 0.2 g/l, NIM1 overexpression line 7C
[7] = Cu(OH)2 2.0 g/l, NIM1 overexpression line 6E
[8] = Cu(OH)2 2.0 g/l, NIM1 overexpression line 7C

For `COCC(=O)N(c1c(C)cccc1C)C(C)C(=O)OC` (racemic) [metalaxyl], the inhibition at 1.2 µg/mL ([1]; Hyaloperonospora parasitica, in Arabidopsis thaliana, Table 36, NIM1 overexpression line 6E, metalaxyl 0.0012 g/l, read-out: Fungal Growth Inhibition % O (observed)) was 56%, the inhibition at 12.5 µg/mL ([1]; Hyaloperonospora parasitica, in Arabidopsis thaliana, Table 36, NIM1 overexpression line 6E, metalaxyl 0.0125 g/l, read-out: Fungal Growth Inhibition % O (observed)) was 76% and the “Synergy Factor O/E” value ([1]; Table 36, NIM1 overexpression line 6E + metalaxyl 0.0012 g/l) was 1.5. For the same compound, the “Synergy Factor O/E” value ([1]; Table 36, NIM1 overexpression line 6E + metalaxyl 0.0125 g/l) was 1.1, the inhibition at 0.02 µg/mL ([2]; Hyaloperonospora parasitica, in Arabidopsis thaliana, read-out: Fungal Growth Inhibition % O (observed), Table 33, cim3 mutant, metalaxyl 0.02 mg/l) was 55.6% and the inhibition at 0.1 µg/mL ([2]; Hyaloperonospora parasitica, in Arabidopsis thaliana, read-out: Fungal Growth Inhibition % O (observed), Table 33, cim3 mutant, metalaxyl 0.1 mg/l) was 57.8%. For the same compound, the inhibition at 2.5 µg/mL ([2]; Hyaloperonospora parasitica, in Arabidopsis thaliana, read-out: Fungal Growth Inhibition % O (observed), Table 33, cim3 mutant, metalaxyl 2.5 mg/l) was 82.2%, the “Synergy Factor O/E” value ([2]; Table 33, cim3 mutation + metalaxyl 0.1 mg/l) was 4.6 and the “Synergy Factor O/E” value ([2]; Table 33, cim3 mutation + metalaxyl 2.5 mg/l) was 6.6.

With `CSC(=O)c1cccc2nnsc12` [BTH] the inhibition at 10 µM ([2]; Hyaloperonospora parasitica, in Arabidopsis thaliana, read-out: Fungal Growth Inhibition % O (observed), Table 34, cim3 mutant, BTH 0.01 mM) was 16.6%, the inhibition at 30 µM ([2]; Hyaloperonospora parasitica, in Arabidopsis thaliana, read-out: Fungal Growth Inhibition % O (observed), Table 34, cim3 mutant, BTH 0.03 mM) was 73.1% and the “Synergy Factor O/E” value ([2]; Table 34, cim3 mutation + BTH 0.01 mM) was 1.3. For the same compound, the “Synergy Factor O/E” value ([2]; Table 34, cim3 mutation + BTH 0.03 mM) was 2.2.

For `[Cu+2].[OH-].[OH-]` [Cu(OH)2, copper hydroxide], the “Fungal Growth Inhibition % O (observed)” value [1, 3] was 20%, the “Synergy Factor O/E” value [1, 3] was 2.0 and the “Fungal Growth Inhibition % O (observed)” value [1, 4] was 55%. The “Synergy Factor O/E” value [1, 4] was 3.9, the “Fungal Growth Inhibition % O (observed)” value [1, 5] was 14% and the “Synergy Factor O/E” value [1, 5] was 1.4. The “Fungal Growth Inhibition % O (observed)” value [1, 6] was 51%, the “Synergy Factor O/E” value [1, 6] was 3.6 and the “Fungal Growth Inhibition % O (observed)” value [1, 7] was 66%. For the same compound, the “Synergy Factor O/E” value [1, 7] was 6.6, the “Fungal Growth Inhibition % O (observed)” value [1, 8] was 77% and the “Synergy Factor O/E” value [1, 8] was 5.5. For the same compound, the synergy factor ([1]; NIM1 overexpression line 7C + copper hydroxide 2.0 g/l) was 5.5 and the “fungal growth inhibition (observed)” value ([1]; NIM1 overexpression line 7C, copper hydroxide 2.0 g/l) was 77%.

In the case of `CCO[PH](=O)O` [fosetyl, ethyl hydrogen phosphonate], the inhibition at 50 µg/mL ([1]; Hyaloperonospora parasitica, in Arabidopsis thaliana, Table 37, NIM1 overexpression line 6E, fosetyl 0.05 g/l, read-out: Fungal Growth Inhibition % O (observed)) is reported as 42%, the inhibition at 500 µg/mL ([1]; Hyaloperonospora parasitica, in Arabidopsis thaliana, Table 37, NIM1 overexpression line 6E, fosetyl 0.5 g/l, read-out: Fungal Growth Inhibition % O (observed)) is reported as 83% and the inhibition at 500 µg/mL ([1]; Hyaloperonospora parasitica, in Arabidopsis thaliana, fosetyl 0.5 g/l, NIM1 overexpression line 7C, read-out: Fungal Growth Inhibition % O (observed)) is reported as 56%. For the same compound, the inhibition at 5000 µg/mL ([1]; Hyaloperonospora parasitica, in Arabidopsis thaliana, read-out: Fungal Growth Inhibition % O (observed), Table 37, NIM1 overexpression line 6E, fosetyl 5.0 g/l) was 93%, the inhibition at 5000 µg/mL ([1]; Hyaloperonospora parasitica, in Arabidopsis thaliana, read-out: Fungal Growth Inhibition % O (observed), fosetyl 5.0 g/l, NIM1 overexpression line 7C) was 80% and the “Synergy Factor O/E” value ([1]; Table 37, NIM1 overexpression line 6E + fosetyl 0.05 g/l) was 4.2. For the same compound, the “Synergy Factor O/E” value ([1]; Table 37, NIM1 overexpression line 6E + fosetyl 0.5 g/l) was 6.9, the “Synergy Factor O/E” value ([1]; Table 37, NIM1 overexpression line 6E + fosetyl 5.0 g/l) was 5.5 and the “Synergy Factor O/E” value ([1]; fosetyl 0.5 g/l, NIM1 overexpression line 7C) was 3.5. The “Synergy Factor O/E” value ([1]; fosetyl 5.0 g/l, NIM1 overexpression line 7C) was 3.8.
